The target in assay [1] is Glutaminyl-peptide cyclotransferase (Homo sapiens, UniProt Q16769).
Description: Inhibition of recombinant human QC using H-Gln-AMC hydrobromide as fluorogenic substrate incubated for 6 hrs by fluorometric microplate reader analysis
The target in assay [2] is Glutaminyl-peptide cyclotransferase-like protein (Homo sapiens, UniProt Q9NXS2). Description: Inhibition of recombinant human isoQC using H-Gln-AMC hydrobromide as fluorogenic substrate incubated for 6 hrs by fluorometric microplate reader analysis.

Broadly, the pIC50 is −log10 of the IC50, conventionally taken in molar units.

pIC50: −log10 of the molar value.

Chain of Glutaminyl-peptide cyclotransferase (Q16769 whole entry): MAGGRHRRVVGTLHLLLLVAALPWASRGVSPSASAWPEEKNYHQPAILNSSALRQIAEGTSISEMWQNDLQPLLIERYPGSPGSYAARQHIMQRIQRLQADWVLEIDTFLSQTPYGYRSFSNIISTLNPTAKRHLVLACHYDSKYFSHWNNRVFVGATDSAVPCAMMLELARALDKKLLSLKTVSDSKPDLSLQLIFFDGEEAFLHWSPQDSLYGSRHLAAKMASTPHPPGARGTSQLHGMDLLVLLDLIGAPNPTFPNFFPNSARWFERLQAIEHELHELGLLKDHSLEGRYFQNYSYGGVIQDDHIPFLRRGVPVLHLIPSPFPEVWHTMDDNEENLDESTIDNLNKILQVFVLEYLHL
Chain of Glutaminyl-peptide cyclotransferase-like protein (Q9NXS2 whole entry): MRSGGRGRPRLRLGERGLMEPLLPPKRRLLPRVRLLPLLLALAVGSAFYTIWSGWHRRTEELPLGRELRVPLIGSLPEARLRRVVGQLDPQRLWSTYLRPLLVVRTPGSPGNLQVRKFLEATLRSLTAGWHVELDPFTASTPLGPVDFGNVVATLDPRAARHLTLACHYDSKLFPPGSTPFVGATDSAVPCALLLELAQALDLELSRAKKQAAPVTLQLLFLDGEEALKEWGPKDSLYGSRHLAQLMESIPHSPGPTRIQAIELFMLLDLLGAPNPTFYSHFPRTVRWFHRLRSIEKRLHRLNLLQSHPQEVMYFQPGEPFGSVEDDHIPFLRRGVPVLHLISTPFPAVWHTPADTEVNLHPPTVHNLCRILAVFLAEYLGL

In assay [1], `Cc1c[nH]cn1` had a pIC50 of 3.96.
On the same count and under the same terms, with `O=C(O)c1ccc2cccc(O)c2n1` the figure was 3.69.
As to `COc1ccc(NC(=S)NCCCn2ccnc2)cc1OC`, the negative logarithm of the IC50 (pIC50) in assay [2] is 6.45.
`Cc1cncn1-c1ccccc1` gave a negative-log IC50 (pIC50) in assay [1] of 3.84.
For the molecule `Cn1cccc(O)c1=O`, the negative logarithm of the IC50 (pIC50) in assay [1] was 3.11.
The same measure, in the same setting: for `O=c1ccocc1O` the value was 3.63; for `Sc1nc2ccccc2[nH]1` [2-MERCAPTOBENZIMIDAZOLE], 3.26; for `Oc1ccccc1O` [CATECHOL], 5.30.
Same read-out and setting: with `Oc1cccc2cccnc12` [OXYQUINOLINE] the figure was 3.68; with `O=C1CNC(=S)N1` [THIOHYDANTOIN], 3.41.

The values above are taken from ChEMBL document CHEMBL5143758, “2-Amino-1,3,4-thiadiazoles as Glutaminyl Cyclases Inhibitors Increase Phagocytosis through Modification of CD47-SIRPα Checkpoint” (ACS Med Chem Lett, 2022).
